The record followed here is US20240279281A1, “Peptide Inhibitors of Interleukin-23 Receptor” (Janssen Pharmaceutica NV, priority 2023, published 2024).

Data set [1] deals with T1, IL-23-stimulated phosphorylated STAT3 in peripheral blood mononuclear cells (PBMCs) (Homo sapiens, UniProt Q5VWK5).
T1 sequence (Q5VWK5 24-629): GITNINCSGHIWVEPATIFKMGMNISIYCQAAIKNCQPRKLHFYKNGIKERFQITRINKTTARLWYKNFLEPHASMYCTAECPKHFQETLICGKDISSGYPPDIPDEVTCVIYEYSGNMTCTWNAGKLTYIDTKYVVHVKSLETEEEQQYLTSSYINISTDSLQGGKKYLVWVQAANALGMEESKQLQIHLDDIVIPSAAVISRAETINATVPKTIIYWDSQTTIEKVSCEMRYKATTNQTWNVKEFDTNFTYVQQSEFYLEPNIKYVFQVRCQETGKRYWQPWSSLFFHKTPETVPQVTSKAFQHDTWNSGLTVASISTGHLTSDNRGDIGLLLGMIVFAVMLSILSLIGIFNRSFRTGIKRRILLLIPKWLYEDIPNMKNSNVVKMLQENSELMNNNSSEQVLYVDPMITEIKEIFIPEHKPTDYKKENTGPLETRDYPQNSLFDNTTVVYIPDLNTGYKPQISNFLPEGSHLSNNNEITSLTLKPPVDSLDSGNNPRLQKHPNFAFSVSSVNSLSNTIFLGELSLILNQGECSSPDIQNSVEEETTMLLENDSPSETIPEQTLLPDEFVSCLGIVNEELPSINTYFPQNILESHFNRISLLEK
The data set is described as follows: PBMC pSTAT3 Assay. It is filed as cell-based. To be noted: PBMCs from healthy donors, IL-23 5 ng/mL, 30 minutes, read-out: PBMC pSTAT3 IC50. A digest of the protocol:
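Anti-CD3/IL-1β-expanded donor PBMCs (day 4) starved ~4 h in RPMI-0.1% BSA, preincubated 30 min with peptide, then stimulated 30 min at 37° C with 5 ng/mL IL-23 (final). Lysates read for phospho-STAT3 by Meso Scale phospho-STAT panel immunoassay.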

Another data set concerns the target T2, IL-23R (Homo sapiens, UniProt Q5VWK5).
T2 construct: host or cells: HEK293
T2 sequence (Q5VWK5 24-629): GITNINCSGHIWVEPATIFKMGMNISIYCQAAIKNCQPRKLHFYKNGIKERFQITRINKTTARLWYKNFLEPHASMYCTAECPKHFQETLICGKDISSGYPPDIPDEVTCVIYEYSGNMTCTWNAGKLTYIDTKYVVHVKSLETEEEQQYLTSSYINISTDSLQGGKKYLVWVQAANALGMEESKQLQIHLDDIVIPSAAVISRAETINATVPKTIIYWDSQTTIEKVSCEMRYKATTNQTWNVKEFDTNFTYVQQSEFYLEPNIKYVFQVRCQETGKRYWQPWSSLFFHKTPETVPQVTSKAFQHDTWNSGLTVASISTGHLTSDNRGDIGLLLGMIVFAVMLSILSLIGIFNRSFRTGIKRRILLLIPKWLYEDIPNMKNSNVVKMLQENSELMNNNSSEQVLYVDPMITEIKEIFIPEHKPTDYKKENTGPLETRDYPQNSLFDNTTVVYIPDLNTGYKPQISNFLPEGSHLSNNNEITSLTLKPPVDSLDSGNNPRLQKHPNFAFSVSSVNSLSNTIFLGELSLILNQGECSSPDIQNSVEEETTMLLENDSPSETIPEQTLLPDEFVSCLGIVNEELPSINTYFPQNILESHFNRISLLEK
The data set is described as follows: IL23R Reporter Assay. It is filed as cell-based. Conditions: HEK293 cells containing IL-23R, IL-12Rβ1 and STAT-inducible luciferase reporter; 10 ng/mL IL-23; 5 h; read-out: IC50. The protocol: Compounds were serially diluted in 100% (v/v) DMSO) and plated using an Echo acoustic dispenser (Labcyte) into 1536-well non-treated black assay plates (Corning #9146). […] After 5 h at 37° C., 5% CO2, 95% relative humidity, cells were placed at 20° C. and treated with BioGlo reagent (Promega) according to the Manufacturer's instructions. Luminescence was measured on a Pherastar FSX (BMG LabTech).

For data set [2] the following is noted: disulfide bond, 20-membered ring, I2/MeOH, 20% MeCN/H2O.

Counter-ions that a name gives are not always drawn. Like-named read-outs stand apart in the source and are kept apart here. Starred links: 1 amine or outer side, 2 acyl side, 3 side chain; linkers in the order of their positions; H or OH if unused. Positions of bridges follow the written chain, without caps; N, C: chain ends. Non-standard residues stand in square brackets, D forms with d. Residues, ends and D or L forms follow the SMILES beside them. *: point of attachment. Trp(7-(3-AcNH-Ph)) = CC(=O)Nc1cccc(-c2cccc3c(C[C@H](N)C(=O)O)c[nH]c23)c1; X12 = O=C([C@H](Cc1ccc2cc(F)ccc2c1)N[*:1])[*:2]; 2Nal(6-OH) = N[C@@H](Cc1ccc2cc(O)ccc2c1)C(=O)O; Trp(7-Me) = Cc1cccc2c(C[C@H](N)C(=O)O)c[nH]c12; Hexanoyl(6-NMe3+) = C[N+](C)(C)CCCCCC(=O)*; AEF = NCCOc1ccc(C[C@H](N)C(=O)O)cc1; 3Pal = N[C@@H](Cc1cccnc1)C(=O)O; Pen = CC(C)(S)[C@H](N)C(=O)O; Thp = NC1(C(=O)O)CCOCC1; Me2NCH2CH2 = CN(C)CC*; Tfa = O=C(C(F)(F)F)*; Sar = CNCC(=O)O

Turning to `CC(=O)NCCCC[C@@H]1NC(=O)[C@H](Cc2c[nH]c3c(-c4cccc(NC(C)=O)c4)cccc23)NC(=O)[C@H]([C@@H](C)O)NC(=O)[C@H](CC(N)=O)NC(=O)[C@@H](NC(=O)[C@@H](CCCNC(=N)N)NC(C)=O)C(C)(C)SSC(C)(C)[C@@H](C(=O)N[C@@H](Cc2ccc(OCCN)cc2)C(=O)N[C@@H](Cc2ccc3cc(O)ccc3c2)C(=O)NC2(C(=O)N[C@@H](CCC(=O)O)C(=O)N[C@@H](CC(N)=O)C(=O)N[C@@H](Cc3cccnc3)C(=O)N(C)CC(N)=O)CCOCC2)NC1=O` [compound 287, MeCO-r-Pen(3)-N-T-7(3NAcPh)W-K(Ac)-Pen(3)-AEF-6OH2Nal-THP-E-N-3Pya-Sar-CONH2] (Ac-[dR][Pen]NT[Trp(7-(3-AcNH-Ph))]K(Ac)[Pen][AEF][2Nal(6-OH)][Thp]EN[3Pal][Sar]-NH2; disulfide 2-7), the IC50 in data set [1] is 0.01 to 0.1 nM; on IL-23R it was below 10 nM. The compound also returned a ring closure, yield after HPLC in data set [2] (from Ac-dArg-Pen-Asn-Thr-7(3NAcPh)Trp-Lys(Ac)-Pen-AEF-6OH2Nal-THP-Glu-Asn-3Pya-Sar-NH2, 0.8 mM) of 26%.

Regarding `CC(=O)NCCCC[C@@H]1NC(=O)[C@H](Cc2c[nH]c3c(C)cccc23)NC(=O)[C@H]([C@@H](C)O)NC(=O)[C@H](CC(N)=O)NC(=O)[C@@H](NC(=O)[C@@H](CCCNC(=N)N)NC(C)=O)C(C)(C)SSC(C)(C)[C@@H](C(=O)N[C@@H](Cc2ccc(OCCN)cc2)C(=O)N[C@@H](Cc2ccc3cc(F)ccc3c2)C(=O)NC2(C(=O)N[C@@H](CCC(=O)O)C(=O)N[C@@H](CC(N)=O)C(=O)N[C@@H](Cc3cccnc3)C(=O)N(C)CC(N)=O)CCOCC2)NC1=O` [SEQ ID NO: 407, MeCO-r-Pen(3)-N-T-7MeW-K(Ac)-Pen(3)-AEF-6F2Nal-THP-E-N-3Pya-Sar-CONH2] (Ac-[dR][Pen]NT[Trp(7-Me)]K(Ac)[Pen][AEF][X12][Thp]EN[3Pal][Sar]-NH2; disulfide 2-7), the IC50 in data set [1] is 0.01 to 0.1 nM; at IL-23R, below 10 nM. For the same compound, the ring closure, yield after HPLC in data set [2] (from Ac-dArg-Pen-Asn-Thr-7MeTrp-Lys(Ac)-Pen-AEF-6F2Nal-THP-Glu-Asn-3Pya-Sar-NH2, 0.85 mM) came to 22.1%.

Consider `CC(=O)NCCCC[C@@H]1NC(=O)[C@H](Cc2c[nH]c3c(C)cccc23)NC(=O)[C@H]([C@@H](C)O)NC(=O)[C@H](CC(N)=O)NC(=O)[C@@H](NC(C)=O)C(C)(C)SSC(C)(C)[C@@H](C(=O)N[C@@H](Cc2ccc(OCCN)cc2)C(=O)N[C@@H](Cc2ccc3cc(O)ccc3c2)C(=O)NC2(C(=O)N[C@@H](CCC(=O)O)C(=O)N[C@@H](CC(N)=O)C(=O)N[C@@H](Cc3cccnc3)C(=O)N(C)CC(N)=O)CCOCC2)NC1=O` [SEQ ID NO: 428, MeCO-Pen(3)-N-T-7MeW-K(Ac)-Pen(3)-AEF-6OH2Nal-THP-E-N-3Pya-Sar-CONH2] (Ac-[Pen]NT[Trp(7-Me)]K(Ac)[Pen][AEF][2Nal(6-OH)][Thp]EN[3Pal][Sar]-NH2; disulfide 1-6), for which the IC50 in data set [1] is below 0.01 nM; at IL-23R it was below 10 nM. In data set [2] (from Ac-Pen-Asn-Thr-7MeTrp-Lys(Ac)-Pen-AEF-6OH2Nal-THP-Glu-Asn-3Pya-Sar-NH2, 1.0 mM), this compound gave a ring closure, yield after HPLC of 8.61%.

Regarding `Cc1cccc2c(C[C@@H]3NC(=O)[C@H]([C@@H](C)O)NC(=O)[C@H](CC(=O)N(C)C)NC(=O)[C@@H](NC(=O)[C@@H](CCCCNC(=O)CCCCC[N+](C)(C)C)NC(=O)C(F)(F)F)C(C)(C)SSC(C)(C)[C@@H](C(=O)N[C@@H](Cc4ccc(OCCN(C)C)cc4)C(=O)N[C@@H](Cc4ccc5cc(O)ccc5c4)C(=O)NC4(C(=O)N[C@@H](CCC(=O)N(C)C)C(=O)N[C@@H](CC(N)=O)C(=O)N[C@@H](Cc5cccnc5)C(=O)N(C)CC(=O)N(C)C)CCOCC4)NC(=O)[C@H](CCC(=O)N(C)C)NC3=O)c[nH]c12` [SEQ ID NO: 405, CF3CO-k(5cpa)-Pen(3)-N(N(Me)2)-T-7MeW-Q(N(Me)2)-Pen(3)-AEF(N(Me)2)-6OH2Nal-THP-Q(N(Me)2)-N-3Pya-Sar-CON(Me)2] (Tfa-[dK](Hexanoyl(6-NMe3+))[Pen]D(NMe2)T[Trp(7-Me)]E(NMe2)[Pen]Y(Me2NCH2CH2)[2Nal(6-OH)][Thp]E(NMe2)N[3Pal][Sar]-NMe2; disulfide 2-7), the figures for the concentration for half-maximal inhibition (IC50) (in data set [1]; on IL-23R) were 0.01 to 0.1 nM and below 10 nM, respectively. In addition, the ring closure, yield after HPLC in data set [2] (from CF3CO-dLys(5cpa)-Pen-Asn(NMe2)-Thr-7MeTrp-Gln(NMe2)-Pen-AEF(NMe2)-6OH2Nal-THP-Gln(NMe2)-Asn-3Pya-Sar-NMe2, 0.51 mM) worked out at 13.4%.

Broadly, the IC50 is the concentration that gives 50% inhibition.
